Consider 5 molecules from US11331369B2, “Endoparasitic depsipeptides” (Zoetis Services LLC, priority 2017, dated 2022).

The assay concerns microfilariae of Dirofilaria immitis. Briefly: Dirofilaria immitis, Microfilaria (DiMF) In vitro Assay. Type of assay: cell-based. The note with it: 72 h, read-out: DiMF Minimum Effective Dose (MED), approximately 72 hours incubation, microfilariae assessed for survival or paralysis.
For the molecule `CC(C)C[C@H]1C(=O)O[C@H](Cc2ccc(CN3CCSc4ccccc43)cc2)C(=O)N(C)[C@@H](CC(C)C)C(=O)O[C@H](C)C(=O)N(C)[C@@H](CC(C)C)C(=O)O[C@H](Cc2ccccc2)C(=O)N(C)[C@@H](CC(C)C)C(=O)O[C@H](C)C(=O)N1C` [Example 10-41, (3S,6R,9S,12R,15S,18R,21S,24R)-6-benzyl-18-(4-((2,3-dihydro-4H-benzo[b][1,4]thiazin-4-yl)methyl)benzyl)-3,9,15,21-tetraisobutyl-4,10,12,16,22,24-hexamethyl-1,7,13,19-tetraoxa-4,10,16,22-tetraazacyclotetracosan-2,5,8,11,14,17,20,23-octaone], the minimal effective concentration fell in the range of 0.01 to 0.1 µM.

`Cc1cnn(Cc2ccc(C[C@H]3OC(=O)[C@H](CC(C)C)N(C)C(=O)[C@@H](C)OC(=O)[C@H](CC(C)C)N(C)C(=O)[C@@H](Cc4ccc(Cn5cc(-c6ccccc6)cn5)cc4)OC(=O)[C@H](CC(C)C)N(C)C(=O)[C@@H](C)OC(=O)[C@H](CC(C)C)N(C)C3=O)cc2)c1` [Example 1a-19, (3S,6R,9S,12R,15S,18R,21S,24R)-3,9,15,21-tetraisobutyl-4,6,10,16,18,22-hexamethyl-12-(4-((4-methyl-1H-pyrazol-1-yl)methyl)benzyl)-24-(4-((4-phenyl-1H-pyrazol-1-yl)methyl)benzyl)-1,7,13,19-tetraoxa-4,10,16,22-tetraazacyclotetracosan-2,5,8,11,14,17,20,23-octaone]: the minimal effective concentration was 0.01 to 0.1 µM.

Consider `CC(C)C[C@H]1C(=O)O[C@H](Cc2ccc(N3CCCC(F)(F)C3)cc2)C(=O)N(C)[C@@H](CC(C)C)C(=O)O[C@H](C)C(=O)N(C)[C@@H](CC(C)C)C(=O)O[C@H](Cc2ccc(CN3CCCC(F)(F)C3)cc2)C(=O)N(C)[C@@H](CC(C)C)C(=O)O[C@H](C)C(=O)N1C` [Example 9-5, (3S,6R,9S,12R,15S,18R,21S,24R)-6-(4-(3,3-difluoropiperidin-1-yl)benzyl)-18-(4-((3,3-difluoropiperidin-1-yl)methyl)benzyl)-3,9,15,21-tetraisobutyl-4,10,12,16,22,24-hexamethyl-1,7,13,19-tetraoxa-4,10,16,22-tetraazacyclotetracosan-2,5,8,11,14,17,20,23-octaone], for which the minimal effective concentration is 0.01 to 0.1 µM. For `CC(C)C[C@H]1C(=O)O[C@H](Cc2ccc(Cn3nccc3C3(N)CC3)cc2)C(=O)N(C)[C@@H](CC(C)C)C(=O)O[C@H](C)C(=O)N(C)[C@@H](CC(C)C)C(=O)O[C@H](Cc2ccc(Cn3nccc3C3(N)CC3)cc2)C(=O)N(C)[C@@H](CC(C)C)C(=O)O[C@H](C)C(=O)N1C` [Example 1b-218, (3S,6R,9S,12R,15S,18R,21S,24R)-6,18-bis(4-((5-(1-aminocyclopropyl)-1H-pyrazol-1-yl)methyl)benzyl)-3,9,15,21-tetraisobutyl-4,10,12,16,22,24-hexamethyl-1,7,13,19-tetraoxa-4,10,16,22-tetraazacyclotetracosan-2,5,8,11,14,17,20,23-octaone] the value was 0.01 to 0.1 µM; for `CCc1nccn1Cc1ccc(C[C@H]2OC(=O)[C@H](CC(C)C)N(C)C(=O)[C@@H](C)OC(=O)[C@H](CC(C)C)N(C)C(=O)[C@@H](Cc3cccc(Cn4ccnc4CC)c3)OC(=O)[C@H](CC(C)C)N(C)C(=O)[C@@H](C)OC(=O)[C@H](CC(C)C)N(C)C2=O)cc1` [Example 7-4, (3S,6R,9S,12R,15S,18R,21S,24R)-6-[[3-[(2-ethylimidazol-1-yl)methyl]phenyl]methyl]-18-[[4-[(2-ethylimidazol-1-yl)methyl]phenyl]methyl]-3,9,15,21-tetraisobutyl-4,10,12,16,22,24-hexamethyl-1,7,13,19-tetraoxa-4,10,16,22-tetrazacyclotetracosane-2,5,8,11,14,17,20,23-octaone], 0.01 to 0.1 µM.
